# “Also recorded” adds a separate entry of the source.
# Tests used:
# Type in all cases: in vivo, Sprague-Dawley rat
# parturition in the rat [1] = assay: Effect of test compound on parturition in the rat, dosed GD 6 through LD 20 (Example 1); settings: for Mean Length of Gestation ± SD: oral gavage
# Excerpt: Effect of the 5α-reductase type 1 inhibitor 3-oxo-4-aza-4,7β-dimethyl-16β-(4-chlorophenoxy)-5α-androstane on parturition in the rat
# Fifty female Sprague-Dawley rats (Charles River Laboratories, Raleigh, N.C.) approximately 11 weeks old, weighing from 211 to 297 grams were assigned to the present study. The female rats were housed singly in stainless steel hanging cages prior to and after cohabitation with a male of the same strain. During cohabitation, females were caged with untreated males of the same strain in a ratio of 1 female: 1 male. On Gestational Day (GD) 15 to 17, females were transferred to individual clear polycarbonate boxes containing Beta-Chip bedding in preparation for delivery and in which they remained with their litters throughout the lactation period. Room temperature was maintained between 19.4° and 25.0° C.; room humidity was maintained between 40 and 60% relative humidity, and room lights were set for alternating 12-hour periods of light and dark throughout the study. All rats had free access to PMI Certified Rodent Diet #5002 and tap water throughout the study.
# Vehicle consisted of 0.5% methylcellulose in deionized water with […] sodium laurel sulfate (SLS) and was prepared on a weekly basis and refrigerated when not in use.
# The high dose formulation of 3-oxo-4-aza-4,7β-dimethyl-16β-(4-chlorophenoxy)-5α-androstane ("test compound") (4 mg/mL, in vehicle) was prepared on a weekly basis and was refrigerated when not in use. All lower does formulations (0.5, 1.0 and 2.0 mg/mL) were prepared on a daily basis by diluting the high dose preparation with the vehicle. Ten females were randomly allocated to each of the following treatment groups: Control, 2.5 mg test compound/kg/day, 5.0 mg test compound/kg/day, 10 mg test compound/kg/day, 20 mg test compound/kg/day. The formulation was administered by oral gavage in a dosage volume of 5 ml/kg based on the most recent body weight. Females were treated once daily with the dose above from GD 6 through LD (lactation day) 20.
# Each female was housed with one untreated male of the same strain. […] The day of finding the plugs and/or sperm was considered GD 0.
# From GD21 until the completion of delivery (LD 0), each pregnant female was observed on four occasions throughout the day. On GD 24, females were observed twice at 7:30 am and 10:00 am. The onset and completion of delivery and any signs of difficulty in parturition were noted. Those females that had completed delivery at the first observation of the day were assigned a whole day value for the length of gestation (e.g. 21.0 or 22.0 days). Those females that completed delivery during the workday were assigned a half day value (e.g. 21.5 or 22.5 days).
# parturition in the rat [2] = assay: Parturition after termination of drug treatment on GD 17, 19 or 20 (Example 2); settings: 20 mg/kg/day; for Mean Length of Gestation ± SD: in days (unit assumed)
# Excerpt: In order to determine if termination of drug treatment with the 5α-reductase type 1 inhibitor 3-oxo-4-aza-4,7β-dimethyl-16β-(4-chlorophenoxy)-5α-androstane ("test compound") on GD 17, 19 or 20 would allow the 3-oxo-4-aza-4,7β-dimethyl-16β-(4-chlorophenoxy)-5α-androstane-treated pregnant females to initiate and complete parturition, Sprague-Dawley rats (Charles River Laboratories, Raleigh, N.C.) were approximately ten weeks of age and weighted 223 to 276 grams on Gestation Day 0 (GD 0, the day of finding copulatory plugs). The design of the study is as described below. All animals were housed and fed as described in Example 1, with the exception of a 1 hour transient electrical failure, during which power outage dim illumination was provided by emergency backup lighting.
# A dose of 20 mg/kg/day of the test compound was given once daily by oral gavage to the three treatment groups of 10 mated females each, designated by the treatment interval (GD 6-17, GD 6-19, and GD 6-20), at a dose volume of 5 mL/kg. (GD 6-17 received treatment from Gestational Day 6 through 17, etc.) An additional group of 10 females similarly received the vehicle (0.5% methylcellulose in deionized water with 0.02% sodium lauryl sulfate (SLS)) on GD 6-20 and served as the control.
# serum progesterone = assay: Serum progesterone in pregnant rats (Example 3); settings: 20 mg/kg/day
# Method: In order to determine if the effects in the experiments conducted in Examples 1 and 2 were due to decreased progesterone catabolism associated with inhibition of 5α-reductase by the 5α-reductase type 1 inhibitor 3-oxo-4-aza-4,7β-dimethyl-16β-(4-chlorophenoxy)-5α-androstane ("test compound"), the following study was performed with the 5α-reductase inhibitor 3-oxo-4-aza-4,7β-dimethyl-16β-(4-chlorophenoxy)-5α-androstane and the progesterone antagonist RU-486.
# Fifty-six pregnant female Sprague-Dawley rats (Charles River Laboratories, Raleigh, N.C.), approximately 10.5 weeks old weighing from 212 to 319 grams were employed in the study. They were fed and housed as described in EXAMPLE 1. The females were assigned to the following groups based on a weight independent random allocation scheme:
# A dose of 10 mg/kg off RU-486 was selected based on the studies of Abdellilah et al., Progesterone and Mifepristone modify principally the response of circular myometrium to oxytocin in preparturient rats: comparison with response to acetylcholine and to calcium J. Pharmacol. and Exp. Therp.
# The drugs were administered by oral gavage. The control article and vehicle consisted of 0.5% methylcellulose in deionized water with 0.02% sodium lauryl sulfate (SLS) and were prepared on a weekly basis and refrigerated when not in use. The test compound formulation (4 mg/mL, in vehicle) was prepared on a weekly basis and was refrigerated when not in use. The RU-486 formulation (2 mg base compound/mL, in 0.5% methylcellulose in deionized water) was prepared on a daily basis.
smiles,measurement,setting,value
"C[C@H]1C[C@H]2N(C)C(=O)CC[C@]2(C)[C@H]2CC[C@]3(C)C[C@@H](Oc4ccc(Cl)cc4)C[C@H]3[C@H]12 [test compound, 3-oxo-4-aza-4,7β-dimethyl-16β-(4-chlorophenoxy)-5α-androstane]",number of females completing parturition,"parturition in the rat [1]; 2.5 mg/kg/day, delivery day GD 22.0",2
same,number of females completing parturition,"parturition in the rat [1]; 2.5 mg/kg/day, delivery day GD 22.5",7
same,Mean Length of Gestation ± SD,parturition in the rat [1]; 2.5 mg/kg/day,22.8 ± 0.4 days
same,Sacrificed GD 24 due to failure to initiate or complete parturition,parturition in the rat [1]; 5.0 mg/kg/day,3
same,number of females completing parturition,"parturition in the rat [1]; 5.0 mg/kg/day, delivery day GD 22.0",2
same,number of females completing parturition,"parturition in the rat [1]; 5.0 mg/kg/day, delivery day GD 22.5",2
same,number of females completing parturition,"parturition in the rat [1]; 5.0 mg/kg/day, delivery day GD 23.0",2
same,Mean Length of Gestation ± SD,parturition in the rat [1]; 5.0 mg/kg/day,22.7 ± 0.7 days
same,Sacrificed GD 24 due to failure to initiate or complete parturition,parturition in the rat [1]; 10.0 mg/kg/day,3
same,number of females completing parturition,"parturition in the rat [1]; 10.0 mg/kg/day, delivery day GD 22.5",2
same,number of females completing parturition,"parturition in the rat [1]; 10.0 mg/kg/day, delivery day GD 23.0",3
same,Mean Length of Gestation ± SD,parturition in the rat [1]; 10.0 mg/kg/day,22.8 ± 0.3 days
same,Sacrificed GD 24 due to failure to initiate or complete parturition,parturition in the rat [1]; 20 mg/kg/day,6
same,number of females completing parturition,"parturition in the rat [1]; 20 mg/kg/day, delivery day GD 22.5",1
same,number of females completing parturition,"parturition in the rat [1]; 20 mg/kg/day, delivery day GD 23.0",3
same,Mean Length of Gestation ± SD,parturition in the rat [1]; 20 mg/kg/day,22.9 ± 0.2 days
same,failure to initiate or complete parturition,"parturition in the rat [1]; 5, 10 and 20 mg/kg/day",treatment related increases in the failure to initiate or complete parturition; also recorded: drug-related increases in the incidence of females that failed to initiate or complete parturition
same,length of gestation,"parturition in the rat [1]; all drug-treated groups, 2.5-20 mg/kg/day",treatment-related increases in the length of gestation
same,length of gestation relative to controls,parturition in the rat [2]; all dosing intervals,increases in the length of gestation
same,number of pregnant females completing parturition,"parturition in the rat [2]; dosed GD 6-17, delivery day GD 22.0",3
same,number of pregnant females completing parturition,"parturition in the rat [2]; dosed GD 6-17, delivery day GD 22.5",1
same,number of pregnant females completing parturition,"parturition in the rat [2]; dosed GD 6-17, delivery day GD 23.0",6
same,Mean Length of Gestation ± SD,parturition in the rat [2]; dosed GD 6-17,22.6 ± 0.5
same,Sacrificed GD 24 due to failure to initiate or complete parturition,parturition in the rat [2]; dosed GD 6-19,1
same,pregnant females that failed to initiate or complete delivery (fraction),parturition in the rat [2]; dosed GD 6-19,1/10
same,number of pregnant females completing parturition,"parturition in the rat [2]; dosed GD 6-19, delivery day GD 22.0",1
same,number of pregnant females completing parturition,"parturition in the rat [2]; dosed GD 6-19, delivery day GD 22.5",3
same,number of pregnant females completing parturition,"parturition in the rat [2]; dosed GD 6-19, delivery day GD 23.0",4
same,number of pregnant females completing parturition,"parturition in the rat [2]; dosed GD 6-19, delivery day GD 23.5",1
same,Mean Length of Gestation ± SD,parturition in the rat [2]; dosed GD 6-19,22.8 ± 0.4
same,Sacrificed GD 24 due to failure to initiate or complete parturition,parturition in the rat [2]; dosed GD 6-20,2
same,pregnant females that failed to initiate or complete delivery (fraction),parturition in the rat [2]; dosed GD 6-20,2/9
same,number of pregnant females completing parturition,"parturition in the rat [2]; dosed GD 6-20, delivery day GD 23.0",5
same,number of pregnant females completing parturition,"parturition in the rat [2]; dosed GD 6-20, delivery day GD 24",2
same,Mean Length of Gestation ± SD,parturition in the rat [2]; dosed GD 6-20,23.3 ± 0.5
same,"mean serum progesterone, times above control group 1",serum progesterone; GD 15,approximately 1.6 times
same,"mean serum progesterone, times above control group 1",serum progesterone; GD 17,~1.4 times
same,"mean serum progesterone, times above control group 1",serum progesterone; GD 19,approximately 1.6 times
same,"mean serum progesterone, times above control group 1",serum progesterone; GD 21,~3.3 times
same,correlation of individual serum progesterone values on GD 21 and failure to initiate or complete parturition,serum progesterone; Group 3,positive correlation

# — patent US5872126A, “Methods and compositions for treating preterm labor” (priority 1997, dated 1999)
